The source of these data is US7812022B2 (GlaxoSmithKline LLC, priority 2004, dated 2010).

Test [1] deals with T1, ErbB2 or EGFR.
T1 construct: enzymes purified from a baculovirus expression system; Reagent production was conducted essentially as described in Brignola, P. S., et al, (2002) J. Biol. Chem. 277(2): 1576-1585
Put plainly: ErbB family substrate phosphorylation enzyme assay (HTRF), Method A or Method B. The format is biochemical. To be noted: Method B: enzyme mix pre-incubated with compound 1 hour at 20° C., started with substrate mix. The method in brief:
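Baculovirus-expressed EGFR or ErbB2 (0.8 or 10 nM in enzyme mix) phosphorylates biotinylated Peptide C with 20 µM ATP and 0.8 µM peptide (substrate-mix levels), MnCl2, pH 7.5. Reaction ran 90 min at 20 °C with EDTA stop and HTRF anti-phosphotyrosine read. Method A: enzyme added last; Method B: 1 h enzyme–compound preincubation.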
Background: In TR-FRET formats the signal depends on donor and acceptor labels being close together.

Test [2] concerns BT474 and HN5 tumor cell lines. The experiment in a line: Celltiter Glo growth inhibition assay (cellular Method B). The format is cell-based. To be noted: Homo sapiens, BT-474, 72 h, 3 days, read-out: Activity (Method): growth inhibition IC50 class. As to the method: (§1) Human breast tumor cells (BT474) were cultured in RPMI, (Invitrogen, 22400) containing 10% fetal bovine serum (FBS). Human head and neck tumor cells (HN5) were cultured in low glucose DMEM (Invitrogen, 12320) containing 10% FBS. Human colon tumor cells (Colo205) were cultured in DMEM (Invitrogen, 10564) containing 10% FBS. All cell lines were maintained at 37° C. in a humidified 5% CO2, 95% air incubator. Cells were harvested using trypsin/EDTA, counted using a haemocytometer, and plated in 30 microliters of the appropriate media described above, at the following densities, in a half area, black-walled, 96-well tissue culture plate (Corning 3882): BT474 3,000 cells/well, HN5 500 cells/well and Colo205 cells, 3,000 cells/well. The next day, compounds were diluted in DMEM containing […] gentamicin, from 10 mM stock solutions in DMSO. 30 microliters/well of these dilutions were added to the 30 microliters/well of media currently on the cell plates. Medium containing 0.6% DMSO was added to control wells. The final concentration of DMSO in all wells was 0.3%. Cells were incubated at 37° C., 5% CO2 for 3 days. Cell biomass was estimated using Celltiter Glo (Promega G7571). Briefly, plates were removed from the incubator and allowed to equilibrate to rt for 30 minutes. 60 microliters of Celltiter Glo reagent were added to each well of the treated cells and plates were shaken on an orbital plate shaker for 2 min. Plates were incubated without shaking for 30 more min and read in a luminometer with an integration time of 0.5 seconds per well. Percent inhibition of cell growth was calculated relative to vehicle treated control wells. Concentration of compound that inhibits 50% of vehicle control cell growth (IC50) was interpolated using nonlinear regression (Levenberg-Marquardt) and the equation, y=Vmax*(1−(x/(K+x)))+Y2, where “K” was equal to the IC50.

The test system of test [3] is Colo205 tumor cell lines. The experiment in a line: Celltiter Glo growth inhibition assay (cellular Method B), Colo205. The format is cell-based. Conditions: Homo sapiens, COLO 205, 72 h, 3 days, read-out: Activity (Method): growth inhibition IC50 class. The method, then: as §1
For orientation: ATP-based viability assays read luminescence as a measure of living cells.

Some results are limits rather than exact numbers.

A word on the IC50: it is the point on the concentration scale where inhibition reaches its midpoint. Take `CS(=O)(=O)NCCOc1ccc(Nc2nccc(-c3c(-c4cccc(NC(=O)c5c(F)cccc5F)c4)nn4ccccc34)n2)cc1Cl` [Example 163, N-{3-[3-(2-{[3-Chloro-4-({2-[(methylsulfonyl)amino]ethyl}-oxy)phenyl]amino}-4-pyrimidinyl)pyrazolo[1,5-a]pyridin-2-yl]phenyl}-2,6-difluorobenzamide]: the “Activity (Method): pIC50 class against ErbB2 or EGFR” value (shortened to “Activity (Method): pIC50 class”) in test [1] is given as “+++ (B) (at least one pIC50 measurement of greater than 7 against either ErbB2 or EGFR)”. Further, the IC50 in test [2] and in test [3] was < 100 nM throughout.

On to `O=C(Nc1cccc(-c2nn3ccccc3c2-c2nc(Nc3cccc(F)c3)ncc2F)c1)c1c(F)cccc1F` [Example 202, 2,6-difluoro-N-[3-(3-{5-fluoro-2-[(3-fluorophenyl)amino]-4-pyrimidinyl}pyrazolo[1,5-a]pyridin-2-yl)phenyl]benzamide], for which the “Activity (Method): pIC50 class” value in test [1] is given as “++ (B) (at least one pIC50 measurement greater than 6 against either ErbB2 or EGFR but no measurement greater than pIC50 of 7)”. Moreover, the IC50 in test [2] is 100 to 1000 nM; in test [3] it was > 1000 nM.

Regarding `CN(C)CCOc1cccc(Nc2nccc(-c3c(-c4cccc(NC(=O)c5c(F)cccc5F)c4)nn4cccc(F)c34)n2)c1` [Example 168, N-[3-(3-{2-[(3-{[2-(Dimethylamino)ethyl]oxy}phenyl)amino]-4-pyrimidinyl}-4-fluoropyrazolo[1,5-a]pyridin-2-yl)phenyl]-2,6-difluorobenzamide], the “Activity (Method): pIC50 class” value in test [1] is on record as “+++ (B) (at least one pIC50 measurement of greater than 7 against either ErbB2 or EGFR)”. The 50% inhibitory concentration (IC50) in test [2] is < 100 nM; in test [3], > 1000 nM.
